According to US20170058314A1, “NOVEL METHODOLOGY FOR IDENTIFYING ANTI-PERSISTER ACTIVITY AND ANTIMICROBIAL SUSCEPTIBILITY FOR BORRELIA BURGDORFERI AND OTHER BACTERIA” (priority 2014, published 2017):
Converted amounts (≈) assume the structure as drawn.

Legend:
[1] = tested on: round body form of B. burgdorferi; assay: SYBR Green I/PI assay on amoxicillin-induced round body form; conditions: for Live cell %, round body form: 10 μg/mL drugs or combinations; for Live cell %, round body form / Ratios of green/red fluorescence, Primary screening / Ratios of green/red fluorescence, Rescreening (first column) / Ratios of green/red fluorescence, Rescreening (second column): 7 days; for viability at 50 µM: Borreliella burgdorferi, 168 h, read-out: Residual viable cells (SYBR Green I/PI assay); for Ratios of green/red fluorescence, Primary screening / Ratios of green/red fluorescence, Rescreening (first column) / Ratios of green/red fluorescence, Rescreening (second column): round body form, 50 μM
[2] = tested on: B. burgdorferi (growing, strain B31); assay: MIC determination, standard microdilution method; type: cell-based, Borrelia burgdorferi; conditions: for sensitivity of log phase / multiplying B. burgdorferi (words, FIG. 12): MIC test
[3] = tested on: log phase and stationary phase B. burgdorferi culture; assay: Antibiotic exposure assay, SYBR Green I/PI (drugs alone and combinations); conditions: for Live cell %, ten day old stationary phase culture (in brackets): 10 μg/mL drugs or combinations, 7 days; for viability at 10 µg/mL: Borreliella burgdorferi, 168 h, read-out: Live Cell % (residual viable B. burgdorferi), ten-day-old stationary phase culture enriched with micro-colonies, 10 μg/mL each drug, 7 days
Method: To qualitatively determine the effect of antibiotics, 10 μL of each compound from the pre-diluted plate or pre-diluted stock was added to stationary phase B. burgdorferi culture in the 96-well plate. The final volume per well was adjusted to 100 μL at a concentration of 10 μg/mL for each antibiotic. Plates were sealed and placed in a 33° C. incubator for 7 days. The SYBR Green I/PI viability assay was used to assess the live and dead cells after antibiotic exposure as described (Feng, Wang, Shi, et al., 2014). Briefly, 10 μL of SYBR Green I (10,000×stock, Invitrogen) was mixed with 30 μL propidium iodide (PI, 20 mM) into 1.0 mL of sterile dH2O. Then, 10 μL of staining mixture was added to each well and mixed thoroughly. The plates were incubated at room temperature in the dark for 15 minutes followed by plate reading at excitation wavelength at 485 nm and the fluorescence intensity at 535 nm (green emission) and 635 nm (red emission) in microplate reader (HTS 7000 plus Bio Assay Reader, PerkinElmer Inc., USA). With least-square fitting analysis, the regression equation and regression curve of the relationship between percentage of live bacteria and green/red fluorescence ratios was obtained. The regression equation was used to calculate the percentage of live cells in each well of the 96-well plate.
To qualitatively determine the effect of antibiotics, 10 μL of each compound (final concentration 50 μM) from the pre-diluted plate or pre-diluted stock was added to round body form or stationary phase B. burgdorferi culture in the 96-well plate. The final volume per well was adjusted to 100 μL. Plates were sealed and placed in a 33° C. incubator for 7 days. The SYBR Green I/PI viability assay was used to assess the live and dead cells after antibiotic exposure as described (Feng, Wang, Shi, et al., 2014). Briefly, 10 μL of SYBR Green I (10,000×stock, Invitrogen) was mixed with 30 μL propidium iodide (PI, 20 mM, Sigma-Aldrich) into 1.0 mL of sterile dH2O. Then, 10 μL staining mixture was added to each well and mixed thoroughly. The plates were incubated at room temperature in the dark for 15 minutes followed by plate reading at excitation wavelength at 485 nm and the fluorescence intensity at 535 nm (green emission) and 635 nm (red emission) in microplate reader (HTS 7000 plus Bio Assay Reader, PerkinElmer Inc., USA). With least-square fitting analysis, the regression equation and regression curve of the relationship between percentage of live and dead bacteria as shown in green/red fluorescence ratios was obtained. The regression equation was used to calculate the percentage of live cells in each well of the 96-well plate.
Round body form and ten day old stationary phase (in brackets) B. burgdorferi culture was treated with 10 μg/mL drugs or their combinations for 7 days. Residual viable B. burgdorferi was calculated according to the regression equation and ratio of Green/Red fluorescence obtained by SYBR Green I/PI assay as described (Feng, Wang, Shi, et al., 2014). Direct microscopy counting was employed to rectify the results of the SYBR Green I/PI assay. […] Abbreviation: Dox, doxcycline; CefP, cefoperazone; DAP, daptomycin; CefM, cefmetazole; Scp, sulfachlorpyridazine; Art, artemisinin; Nft, nitrofurantoin.

[4] = tested on: stationary phase B. burgdorferi persisters (strain B31); assay: epifluorescence microscope counting after SYBR Green I/PI staining, FDA drug screen; conditions: Borreliella burgdorferi, 168 h, read-out: Residual viable cells (epifluorescence microscope counting)
[5] = tested on: stationary phase B. burgdorferi persisters (strain B31); assay: SYBR Green I/PI viability assay (plate reader), FDA-approved drug library screen; conditions: for Ratio of Green/Red fluorescence, Primary screening / Ratio of Green/Red fluorescence, Rescreening (first column) / Ratio of Green/Red fluorescence, Rescreening (second column): 50 μM, 7 days, stationary phase; for viability at 50 µM: Borreliella burgdorferi, 168 h, read-out: Residual viable cells (regression equation, SYBR Green I/PI assay)

| Structure (SMILES) | Live cell %, round body form [1] [%] | viability at 50 µM [1] [%] | Ratios of green/red fluorescence, Primary screening [1] | Ratios of green/red fluorescence, Rescreening (first column) [1] | Ratios of green/red fluorescence, Rescreening (second column) [1] | MIC ([2]; Borreliella burgdorferi, growing B. burgdorferi, read-out: MIC) [µg/mL] | Live cell %, ten day old stationary phase culture (in brackets) [3] [%] | viability at 50 µM [4] [%] | Ratio of Green/Red fluorescence, Primary screening [5] | Ratio of Green/Red fluorescence, Rescreening (first column) [5] | Ratio of Green/Red fluorescence, Rescreening (second column) [5] | viability at 50 µM [5] [%] | sensitivity of log phase / multiplying B. burgdorferi (words, FIG. 12) [2] | viability at 10 µg/mL [3] [%] |
| --- | --- | --- | --- | --- | --- | --- | --- | --- | --- | --- | --- | --- | --- | --- |
| C[C@@H]1CC[C@H]2[C@@H](C)C(=O)O[C@@H]3O[C@@]4(C)CC[C@@H]1[C@]32OO4 [Artemisinin] | 28 | 24 | 5.96 | 6.14 | 6.17 | 50 to 100 (≈ 177 to 354 µM) | 73 |  |  |  |  |  |  |  |
| CC[C@H]1OC(=O)[C@H](C)[C@@H](O[C@H]2C[C@@](C)(OC)[C@@H](O)[C@H](C)O2)[C@H](C)[C@@H](O[C@@H]2O[C@H](C)C[C@H](N(C)C)[C@H]2O)[C@](C)(O)C[C@@H](C)CN(C)[C@H](C)[C@@H](O)[C@]1(C)O [Azithromycin] |  | 47 | 6.79 | 6.52 | 6.42 |  |  | 77 | 8.33 | 8.10 | 7.92 | 80 |  |  |
| CO[C@@]1(NC(=O)CSCC#N)C(=O)N2C(C(=O)O)=C(CSc3nnnn3C)CS[C@@H]21 [Cefmetazole] | 34 | 33 | 6.13 | 6.25 | 6.46 |  | 53 |  | 6.80 | 7.38 | 6.00 | 43 |  |  |
| CN(C)CCn1nnnc1SCC1=C(C(=O)O)N2C(=O)[C@@H](NC(=O)Cc3csc(N)n3)[C@H]2SC1 [Cefotiam] |  |  |  |  |  |  |  | 42 | 6.41 | 7.55 | 6.21 | 43 | very sensitive |  |
| Nc1nc(/C(=C/CC(=O)O)C(=O)N[C@@H]2C(=O)N3C(C(=O)O)=CCS[C@H]23)cs1 [Ceftibuten] |  |  |  |  |  |  |  | 51 | 6.81 | 6.78 | 7.27 | 49 |  |  |
| CO/N=C(\C(=O)N[C@@H]1C(=O)N2C(C(=O)O)=C(COC(N)=O)CS[C@H]12)c1ccco1 [Cefuroxime] |  | 34 | 6.29 | 6.28 | 6.31 |  |  | 49 | 6.59 | 6.84 | 6.67 | 43 |  |  |
| CC(=O)OCC1=C(C(=O)O)N2C(=O)[C@@H](NC(=O)Cc3cccs3)[C@H]2SC1 [Cephalothin] |  |  |  |  |  |  |  | 49 | 6.74 | 6.49 | 6.55 | 40 |  |  |
| CC1(C)S[C@@H]2[C@H](NC(=O)C3(N)CCCCC3)C(=O)N2[C@H]1C(=O)O [Cyclacillin] |  |  |  |  |  |  |  | 51 | 6.81 | 6.88 | 7.64 | 53 |  |  |
| CCN(CCO)CCCC(C)Nc1ccnc2cc(Cl)ccc12 (centres unmarked) [Hcq, hydroxychloroquine] |  |  |  |  |  |  |  |  |  |  |  |  |  | 71 |
| Clc1ccc(COC(Cn2ccnc2)c2ccc(Cl)cc2Cl)c(Cl)c1 (centres unmarked) [Mcz, miconazole] |  |  |  |  |  |  |  |  |  |  |  |  | less potent | 65 |
